Source: patent publication US20240051968A1, “METHODS FOR TREATING SPINOCEREBELLAR ATAXIA TYPE 3” (PTC Therapeutics, Inc., priority 2021, published 2024)

Assays:
[1] = tested on: Total ATXN3 (tATXN3) protein; test: Endogenous Total ATXN3 (tATXN3) Protein Assay (MSD immunoassay of cell lysates); assay type: cell-based; details: cells incubated with compound 48 h; 7-point concentration curve; MSD detection in cell lysate
Method in brief: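 Cells were plated at 10,000 per well on a 7-point, 3.16-fold compound dilution series in duplicate, with DMSO controls, and incubated 48 h at 37 °C. Lysates were run in an MSD sandwich immunoassay: mouse anti-ATXN3 capture, rabbit anti-ATXN3 secondary and SULFO-TAG anti-rabbit detection, read by electrochemiluminescence.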

ATXN3 pre-mRNA = test: RT-qPCR Assay to Quantify Exon 4 Skipping in ATXN3 pre-mRNA in Cells; assay type: cell-based; details: cells incubated with compound 24 h, 7-point concentration curve, GAPDH control
Method in brief: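 Cells (10,000/well) treated 24 h at 37° C with 7-point, 3.16-fold compound dilutions in duplicate against DMSO controls. Lysates analysed by one-step RT-qPCR (40 cycles) for ATXN3 exon 4 skipping; percent skipping per dose fitted to dose-response to interpolate IC50.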

IC50 [1] [µM]	IC50 (ATXN3 pre-mRNA) [µM]	IC50 (average), total ATXN3 protein [1]	IC50, exon 4 skipping in ATXN3 pre-mRNA (ATXN3 pre-mRNA)	SMILES
> 2	1.5 to 2			N[C@H](CF)Cc1sc2c(NCc3cccs3)cc(Cl)nc2c1Br [Cpd 63, 2-[(2S)-2-amino-3-fluoropropyl]-3-bromo-5-chloro-N-[(thiophen-2-yl)methyl]thieno[3,2-b]pyridin-7-amine]
≤ 0.5	≤ 0.5			N[C@@H](CCF)Cc1sc2c(NCc3ccco3)cc(Cl)nc2c1Br [Cpd 97, 2-[(2S)-2-amino-4-fluorobutyl]-3-bromo-5-chloro-N-[(furan-2-yl)methyl]thieno[3,2-b]pyridin-7-amine]
≤ 0.5	≤ 0.5			N#CC[C@H](N)Cc1sc2c(NCc3cccs3)cc(Cl)nc2c1Cl [Cpd 106, (3S)-3-amino-4-(3,5-dichloro-7-{[(thiophen-2-yl)methyl]amino}thieno[3,2-b]pyridin-2-yl)butanenitrile]
		inactive	inactive	C[C@H](N)C(O)c1sc2c(NCc3nccs3)cc(Cl)nc2c1Br (stereo partly drawn) [Cpd 159, (2S)-2-amino-1-(3-bromo-5-chloro-7-{[(1,3-thiazol-2-yl)methyl]amino}thieno[3,2-b]pyridin-2-yl)propan-1-ol]
≤ 0.5	≤ 0.5			Cc1c(C[C@@H](N)C(=O)N(C)C)sc2c(NCc3ccco3)cc(Cl)nc12 [Cpd 116, 3-(5-chloro-7-{[(furan-2-yl)methyl]amino}-3-methylthieno[3,2-b]pyridin-2-yl)-N,N-dimethyl-D-alaninamide]
≤ 0.5	≤ 0.5			Cc1c([C@H](C)[C@H](C)N)sc2c(NCc3ccco3)cc(Cl)nc12 [Cpd 150, 2-[(2R,3S)-3-aminobutan-2-yl]-5-chloro-N-[(furan-2-yl)methyl]-3-methylthieno[3,2-b]pyridin-7-amine]
≤ 0.5	≤ 0.5			C#C[C@H](N)Cc1sc2c(NCc3ccco3)cc(Cl)nc2c1C [Cpd 123, 2-[(2R)-2-aminobut-3-yn-1-yl]-3-methyl-5-chloro-N-[(furan-2-yl)methyl]thieno[3,2-b]pyridin-7-amine]
0.5 to 1	≤ 0.5			N[C@H](Cc1sc2c(NCc3ccco3)cc(Cl)nc2c1Cl)C(=O)O [Cpd 121, 3-(3,5-dichloro-7-{[(furan-2-yl)methyl]amino}thieno[3,2-b]pyridin-2-yl)-D-alanine]

SMILES	IC50 [1] [µM]	IC50 (ATXN3 pre-mRNA) [µM]	IC50 (average), total ATXN3 protein [1]	IC50, exon 4 skipping in ATXN3 pre-mRNA (ATXN3 pre-mRNA)
Cc1c(C[C@H](C)N)sc2c(NCc3nccs3)cc(Cl)nc12 [Cpd 57, 2-[(2S)-2-aminopropyl]-5-chloro-3-methyl-N-[(1,3-thiazol-2-yl)methyl]thieno[3,2-b]pyridin-7-amine]	≤ 0.5	≤ 0.5		
Cc1c(C[C@H](C)N)sc2c(NCc3ccco3)ccnc12 [Cpd 34, 2-[(2S)-2-aminopropyl]-N-[(furan-2-yl)methyl]-3-methylthieno[3,2-b]pyridin-7-amine]	≤ 0.5	≤ 0.5		
